Measurements from US10829506B2, “Amino- or ammonium-containing sulfonic acid, phosphonic acid and carboxylic acid derivatives and their medical use” (GRI Bio, Inc., priority 2011, dated 2020).

Legend:
RBL-2H3 cells = test: Maximum tolerated concentration (cytotoxicity by lactate dehydrogenase release); assay type: cell-based, rat
From the text: A commercially available cytotoxicity test was used (Promega Cytotox-One cat. #67891).
The safety index (SI) of a test compound Is the ratio between the maximum tolerated concentration and the 1C50 and is used as a measure of the relative safety of the test compound.

phospho-Akt Ser473 = test: Inhibition of Akt phosphorylation on Ser473 in IgE sensitized, antigen stimulated RBL-2H3 cells; assay type: cell-based, rat; conditions: normalized to total Akt, IgE and antigen for 15 min
From the text: The mast cell degranulation assay using the RBL-2H3 cell line (see Example 27) was also used to determine the status of the PI3K/Akt axis. Activation of PI3K leads to production of PIP3 on the cytosolic side of the lipid bilayer. Akt is recruited to the PIP3 domain and subsequently activated by phosphorylation on residues Ser473 and Thr308. (Franke et al., Cell 81:727-736, (1995)). Once recruited to the membrane, it is phosphorylated and activated by other kinases (Hemmings, Science 275:628-630 (1997); Hemmings. Science 276:534 (1997); Downward, Science 279:673-674 (1998); Alessi et al., EMBO J. 15:6541-6551 (1996)). Western blotting of the phosphorylated Ser473 residue on Akt (phospho-Akt Ser473) is widely used to assess the level of activation of the PI3K/Akt axis.
All buffers and solutions used for the phosphor-Akt Ser473 assay were from Meso Scale Discovery. Tris Lysis Buffer consisted of 150 mM NaCl, 20 mM Tris, pH 7.5, 1 mM EDTA, 1 mM EGTA and 1% Triton-X-100. Complete Tris Lysis Buffer was prepared prior to use by addition of protease inhibitor, phosphatase inhibitors and PMSF. The 10x Tris Wash Buffer consisted of 500 mM Tris, pH 7.5, 1.5 M NaCl and 0.2% Tween-20. Blocker A was made up of bovine serum albumin in Tris Wash Buffer. Read Buffer T was used according to manufacturer's instructions. The Whole Cell Lysate Kits used were phospho-Akt Ser473 (K11100D. Lot K0011749) and total ERK½ (K11107D, Lot K0011698) as a loading control.
Protein assay: protein concentration was determined using the BCA (bicinchoninic acid) Protein Assay kit according to the manufacturer's instructions, Briefly, duplicate 10 μl samples of bovine serum albumin (BSA) standards, blank and lysates were incubated in a 96-well plate with 0.2 ml working reagent for 30 min at 37° C. Plates cooled to room temperature for 5 min and absorbance at 562 nm measured in a multi-mode plate reader. Protein concentrations were calculated using FlexStation 3 software (SoftMax Pro version 5.3). Protein concentration of lysates was determined from a standard curve (BSA) using a linear curve fit.
Phosphoprotein assay: protein phosphorylation was determined using the MULTI-SPOT® Assay System (Meso Scale Discovery), providing simultaneous detection of phosphorylated and total proteins. Briefly, capture antibodies against phosphorylated and total protein are patterned on distinct spots in the same well of 96-well plates. Sandwich immunoassay and electrochemiluminescence detection technology are combined to measure intensity of the emitted light from phosphorylated and total protein spots. For analysis of phosphor-Akt Ser473 was performed according to the manufacturer's instructions. The optimal amount of protein was determined at 5 μg lysate per well for ERK½ and 10 μg/well for phospho-Akt Ser473. Plates were blocked with 25 μl/well Blocker A for 1 h at room temperature with gentle agitation. During this time, the lysates were thawed and diluted to the desired protein concentration in complete Tris Lysis Buffer. Plates were washed four times in Tris Wash Buffer and 25 μl lysate per well added. Plates were incubated for 1-3 h at room temperature with agitation according to the manufacturer's recommendations. Plates were washed four times with Tris Wash Buffer, followed by addition of 25 μl/well of the respective detection antibody and incubation for 1 h at room temperature, with agitation. After a final four washes with Tris Wash Buffer 150 μl/well, Read Buffer T was added, and plates read on a SECTOR Imager 6000 plate reader.
The mean background signal from each plate was subtracted from averaged raw data. The amount of total protein phosphorylaled was expressed as % phosphoprotein according to the manufacturer's (Meso Scale Discovery) Instructions.
Levels of phospho-Akt Ser473 were determined in IgE sensitized and antigen stimulated cells after treatment without (positive control) or with 1, 5 and 25 μM test compound and normalized to levels of total Akt.

[1] = Body weight and toxic side-effects in the DTH study; assay type: in vivo, mice; conditions: oral
Experimental: Three hours after the last dose, the antigen challenge was performed on the ears as described above. Dexamethasone was given at 1 mg/kg orally by gavage 3 h before sensitization and once daily with the final dose given 3 h prior to antigen challenge (a total of 7 administrations). All administrations were given in a volume of 10 mL/kg.
Such high dosing (overdose) is, however, not suitable for treatment of humans due to severe side effects of the corticosteroid and was only used to validate the responsiveness of the model.

BALB/c-mice = test: Local lymph node weight and cell count after TDI challenge; assay type: in vivo
Experimental: Directly after sacrifice, the ear draining lymph node (Ln. auricufaris) was prepared and excised. Organ weight was determined by means of an analytical balance (Kern, Balingen, Germany). Single cell suspensions were prepared by means of a glass potter (VWR, Darmstadt, Germany) and cells were counted with a hemocytometer (Neubauer, V W R, Germany).
One of the most undesirable side-effects of corticosteroid administration is immunosuppression, which leads to the inability to effectively address parasitic infection, wound healing and tumor growth. In the current study, the local lymph node reaction after TDI challenge (lymph node weight and cell number) was determined to assess the response of immune organs.

## CCCCCCCCCCCCCC[N+](C)(C)CCCS(=O)(=O)[O-] [Compound 1a, 3-(N,N-Dimethylmyristylammonio)-Propanesulfonate]
RBL-2H3 cells; highest concentration not causing cytotoxicity, LDH release
  MTC (maximum tolerated concentration): 100 µM
RBL-2H3 cells; ratio between maximum tolerated concentration and IC50
  SI (safety index, ratio MTC/IC50): 31.3
phospho-Akt Ser473; 1 μM
  Level of phospho-Akt Ser473: 103.1 ± 17.4 % positive control
phospho-Akt Ser473; 5 μM
  Level of phospho-Akt Ser473: 57.0 ± 15.2 % positive control
phospho-Akt Ser473; 25 μM
  Level of phospho-Akt Ser473: 13.2 ± 4.2 % positive control
[1]
  Toxic side-effects during the course of the study: no toxic side-effects
BALB/c-mice; systemic treatment at 100 mg/kg
  Local lymph node reaction (lymph node weight and cell number): did not have any impact
BALB/c-mice; topical treatment at 2% or 6%
  Local lymph node reaction (lymph node weight and cell number): did not have any impact
